These results are taken from patent US12122761B2, “2-azaspiro[3.4]octane derivatives as M4 agonists” (NOVARTIS AG, priority 2019, dated 2024).

The target of assay [1] is T1, Cloned human M1 receptor (CHRM1) stably expressed in HEK293 cells (Homo sapiens, UniProt P11229).
T1 construct: expressed in transfected cells; host or cells: HEK293
T1 sequence (P11229 1-460): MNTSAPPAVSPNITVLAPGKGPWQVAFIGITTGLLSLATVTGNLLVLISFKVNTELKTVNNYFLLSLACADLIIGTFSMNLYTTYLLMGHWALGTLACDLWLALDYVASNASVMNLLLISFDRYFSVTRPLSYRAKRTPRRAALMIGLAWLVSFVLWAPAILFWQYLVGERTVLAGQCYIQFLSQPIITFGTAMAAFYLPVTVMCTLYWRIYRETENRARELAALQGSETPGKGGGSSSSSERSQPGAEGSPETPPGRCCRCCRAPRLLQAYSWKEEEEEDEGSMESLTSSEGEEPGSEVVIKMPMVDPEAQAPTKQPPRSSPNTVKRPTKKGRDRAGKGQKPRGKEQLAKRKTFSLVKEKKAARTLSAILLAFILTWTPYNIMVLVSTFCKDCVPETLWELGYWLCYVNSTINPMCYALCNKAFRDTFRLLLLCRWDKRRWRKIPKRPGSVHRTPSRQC
Put plainly: CHRM1 Ca++ Flux Assay (agonist mode, FDSS 7000EX). The assay is classed as cell-based. To be noted: for Emax: HEK293, Percent Activity, read-out: M1 FDSS PA; for EC50: geometric mean if tested more than once. A digest of the protocol: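 Compounds tested as agonists at 11 concentrations in triplicate, with calcium traces captured over 3 minutes. Cells were HEK293 with stable human CHRM1 expression, plated overnight at 25K/well and loaded with calcium dye. Responses normalized to carbachol EC100 and fitted by four-parameter nonlinear regression.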

The target in assay [2] is T2, human cloned CHRM2 receptor (M2_CHO cells) (Homo sapiens, UniProt P08172).
T2 construct: expressed in transfected cells; host or cells: CHO-K1
T2 sequence (P08172 1-466): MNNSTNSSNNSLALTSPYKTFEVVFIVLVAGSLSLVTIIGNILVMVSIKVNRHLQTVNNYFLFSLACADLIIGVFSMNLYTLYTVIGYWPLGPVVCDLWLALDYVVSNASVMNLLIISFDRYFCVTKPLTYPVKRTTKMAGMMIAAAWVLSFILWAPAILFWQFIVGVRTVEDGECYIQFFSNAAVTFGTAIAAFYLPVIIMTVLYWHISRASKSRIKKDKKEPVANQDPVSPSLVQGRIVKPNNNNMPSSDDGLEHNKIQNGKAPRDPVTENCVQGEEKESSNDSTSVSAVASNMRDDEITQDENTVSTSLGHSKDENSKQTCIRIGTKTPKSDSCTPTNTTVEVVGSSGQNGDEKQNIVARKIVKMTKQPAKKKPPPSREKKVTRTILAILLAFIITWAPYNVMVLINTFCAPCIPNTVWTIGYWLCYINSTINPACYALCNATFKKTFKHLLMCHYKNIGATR
Put plainly: CHRM2 Ca++ Flux Assay (agonist mode, FDSS 7000EX). To be noted: for Emax: Percent Activity measured to EC100 of Carbachol, read-out: M2 FDSS PA; for EC50: agonist mode, geometric mean if tested more than once, read-out: M2 FDSS EC50. The assay is classed as cell-based. A digest of the protocol: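 Response expressed as percent activity versus the Carbachol EC100, with curves fitted by four-parameter non-linear regression of triplicates. Stable M2_CHO cells were Ca++ dye-loaded and preincubated 60 min at room temperature in assay buffer containing 20 μM ATP; signal imaged for 3 minutes after compound.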

One may read the EC50 as the concentration giving half of the maximal effect.

Regarding `c1ccc(C2CCN([C@@H]3CCC4(C3)CN(c3nncs3)C4)CC2)c(OC[C@H]2COCCO2)c1` [Example 3B, 2-((R)-6-(4-(2-(((R)-1,4-dioxan-2-yl)methoxy)phenyl)piperidin-1-yl)-2-azaspiro[3.4]octan-2-yl)-1,3,4-thiadiazole], in assay [1], the Emax was 83% and the EC50 turned out to be 51 nM. Besides, in assay [2], the Emax worked out at 16% and the EC50 was found to be 18 nM.

Turning to `O=C(C1COC1)N1CC2(CC[C@@H](N3CCC(c4ccccc4OCC4CC4)CC3)C2)C1` [Example 7I, (R)-(6-(4-(2-(cyclopropylmethoxy)phenyl)piperidin-1-yl)-2-azaspiro[3.4]octan-2-yl)(oxetan-3-yl)methanone], the Emax in assay [1] worked out at 86%; in assay [2], 16%. Moreover, the values for the EC50 in assay [1] and in assay [2] were 15 nM and 123 nM, respectively.

As for `Fc1cccc(C2CCN([C@@H]3CCC4(C3)CN(c3nncs3)C4)CC2)c1OC1COC1` [Example 3E, (R)-2-(6-(4-(3-fluoro-2-(oxetan-3-yloxy)phenyl)piperidin-1-yl)-2-azaspiro[3.4]octan-2-yl)-1,3,4-thiadiazole], in assay [1], the Emax is 87% and the EC50 was found to be 54 nM. In addition, in assay [2], the Emax came to 31% and the EC50 is 191 nM.

Regarding `Cc1nccnc1N1CC2(CC[C@@H](N3CCC(c4ccccc4OCC(C)(C)O)CC3)C2)C1` [Example 5T, (R)-2-methyl-1-(2-(1-(2-(3-methylpyrazin-2-yl)-2-azaspiro[3.4]octan-6-yl)piperidin-4-yl)phenoxy)propan-2-ol], in assay [1], the Emax was determined as 34% and the EC50 amounted to 537 nM. In assay [2], the Emax was 0%.

Take `CC(C)(O)CCOc1ccccc1C1CCN([C@@H]2CCC3(C2)CN(C(=O)C2COC2)C3)CC1` [Example 7CC, (R)-(6-(4-(2-(3-hydroxy-3-methylbutoxy)phenyl)piperidin-1-yl)-2-azaspiro[3.4]octan-2-yl)(oxetan-3-yl)methanone]: in assay [1], the Emax was determined as 94% and the EC50 is 6 nM. Moreover, the Emax in assay [2] stood at 0%.

As for `Fc1ccc(N2CC3(CC[C@@H](N4CCC(c5ccccc5C5CCOCC5)CC4)C3)C2)cn1` [Example 5CC, (R)-2-(6-fluoropyridin-3-yl)-6-(4-(2-(tetrahydro-2H-pyran-4-yl)phenyl)piperidin-1-yl)-2-azaspiro[3.4]octane], in assay [1], the Emax came to 36% and the EC50 was 335 nM. Also, in assay [2], the Emax worked out at 35% and the EC50 amounted to 466 nM.

In the case of `CC(C)Oc1ccccc1C1CCN([C@@H]2CCC3(C2)CN(C(=O)C2COC2)C3)CC1` [Example 7K, (R)-(6-(4-(2-isopropoxyphenyl)piperidin-1-yl)-2-azaspiro[3.4]octan-2-yl)(oxetan-3-yl)methanone], in assay [1], the Emax is 72% and the midpoint of the response, the EC50, lay at 24 nM. Further, in assay [2], the Emax is 23% and the EC50 stood at 590 nM.

Regarding `O=C(C1COC1)N1CC2(CC[C@@H](N3CCC(c4ccccc4OC(F)(F)F)CC3)C2)C1` [Example 12A, (R)-oxetan-3-yl(6-(4-(2-(trifluoromethoxy)phenyl)piperidin-1-yl)-2-azaspiro[3.4]octan-2-yl)methanone], the Emax in assay [1] was found to be 79%; in assay [2], 18%. In addition, the EC50 in assay [1] worked out at 8 nM; in assay [2] it was 110000 nM.

Regarding `COc1ccccc1C1CCN([C@@H]2CCC3(C2)CN(c2nncs2)C3)CC1` [Example 3D, (R)-2-(6-(4-(2-methoxyphenyl)piperidin-1-yl)-2-azaspiro[3.4]octan-2-yl)-1,3,4-thiadiazole], in assay [1], the Emax was determined as 78% and the EC50 is 42 nM. Besides, the Emax in assay [2] came out at 17%.

For `COc1ccccc1C1CCN([C@@H]2CCC3(C2)CN(c2ccns2)C3)CC1` [Example 3I, (R)-5-(6-(4-(2-methoxyphenyl)piperidin-1-yl)-2-azaspiro[3.4]octan-2-yl)isothiazole], in assay [1], the Emax worked out at 70% and the EC50 turned out to be 54 nM. For the same molecule, the Emax in assay [2] was found to be 40%.

On to `Fc1cccc(C2CCN([C@@H]3CCC4(C3)CN(c3cncnc3)C4)CC2)c1OC1COC1` [Example 5W, (R)-6-(4-(3-fluoro-2-(oxetan-3-yloxy)phenyl)piperidin-1-yl)-2-(pyrimidin-5-yl)-2-azaspiro[3.4]octane], for which, in assay [1], the Emax was determined as 60% and the EC50 was 52 nM. In assay [2], the Emax turned out to be 16% and the EC50 stood at 57 nM.

Take `c1ccc(C2CCN([C@@H]3CCC4(C3)CN(c3nncs3)C4)CC2)c(OCC2CCOCC2)c1` [Example 1I, (R)-2-(6-(4-(2-((tetrahydro-2H-pyran-4-yl)methoxy)phenyl)piperidin-1-yl)-2-azaspiro[3.4]octan-2-yl)-1,3,4-thiadiazole]: the Emax is 55% in assay [1] and 28% in assay [2]. Besides, the EC50 in assay [1] came to 616 nM; in assay [2], 92 nM.

`Fc1ccc(C2CCOCC2)c(C2CCN([C@@H]3CCC4(C3)CN(c3nnco3)C4)CC2)c1` [Example 2I, (R)-2-(6-(4-(5-fluoro-2-(tetrahydro-2H-pyran-4-yl)phenyl)piperidin-1-yl)-2-azaspiro[3.4]octan-2-yl)-1,3,4-oxadiazole]: in assay [1], the Emax was found to be 89% and the EC50 amounted to 106 nM. In assay [2], the Emax came to 41% and the EC50 came to 125 nM.

For `O=C(C1COC1)N1CC2(CC[C@@H](N3CCC(c4ccccc4OCCOC4COC4)CC3)C2)C1` [Example 7EE, (R)-oxetan-3-yl(6-(4-(2-(2-(oxetan-3-yloxy)ethoxy)phenyl)piperidin-1-yl)-2-azaspiro[3.4]octan-2-yl)methanone], the Emax in assay [1] stood at 98%; in assay [2], 17%. The values for the EC50 in assay [1] and in assay [2] were 73 nM and 464 nM, respectively.

In the case of `c1ccc(C2CCN([C@@H]3CCC4(C3)CN(c3cncnc3)C4)CC2)c(OCC2COC2)c1` [Example 1N, (R)-6-(4-(2-(oxetan-3-ylmethoxy)phenyl)piperidin-1-yl)-2-(pyrimidin-5-yl)-2-azaspiro[3.4]octane], in assay [1], the Emax is 70% and the EC50 came to 69 nM. Also, in assay [2], the Emax is 10% and the EC50 came out at 7 nM.

For `CC(C)(O)COc1ccccc1C1CCN([C@@H]2CCC3(C2)CN(C(=O)C2COC2)C3)CC1` [Example 7L, (R)-(6-(4-(2-(2-hydroxy-2-methylpropoxy)phenyl)piperidin-1-yl)-2-azaspiro[3.4]octan-2-yl)(oxetan-3-yl)methanone], the Emax in assay [1] worked out at 85%; in assay [2] it was 0%. In assay [1], this molecule returned an EC50 of 324 nM.

For the molecule `c1ccc(C2CCN([C@@H]3CCC4(C3)CN(c3nnco3)C4)CC2)c(OC2CC3(COC3)C2)c1` [Example 1A, (R)-2-(6-(4-(2-((2-oxaspiro[3.3]heptan-6-yl)oxy)phenyl)piperidin-1-yl)-2-azaspiro[3.4]octan-2-yl)-1,3,4-oxadiazole], the figures for the Emax in assay [1] and in assay [2] were 63% and 0%, respectively. Further, the EC50 in assay [1] was 237 nM.

`O=C(C1COC1)N1CC2(CC[C@@H](N3CCC(c4ccccc4OC[C@@H]4CCOC4)CC3)C2)C1` [Example 7E, oxetan-3-yl((R)-6-(4-(2-(((R)-tetrahydrofuran-3-yl)methoxy)phenyl)piperidin-1-yl)-2-azaspiro[3.4]octan-2-yl)methanone]: in assay [1], the Emax came out at 101% and the EC50 was found to be 46 nM. In assay [2], the Emax is 23% and the EC50 turned out to be 141 nM.
